# Results from ChEMBL document CHEMBL3853264 (Medchemcomm, 2016).
# Legend:
# [1] = molecular target: T1, Solute carrier family 22 member 12 (Homo sapiens, UniProt Q96S37); assay: Inhibition of human C-terminal eGFP-tagged URAT1 long isoform expressed in CHO cells assessed as decrease in [14C]-uric acid uptake preincubated for 15 mins followed by [14C]-uric acid addition and incubated in dark for 3 hrs by scintillation counting method; format: cell-based
# T1 sequence (Q96S37 whole entry): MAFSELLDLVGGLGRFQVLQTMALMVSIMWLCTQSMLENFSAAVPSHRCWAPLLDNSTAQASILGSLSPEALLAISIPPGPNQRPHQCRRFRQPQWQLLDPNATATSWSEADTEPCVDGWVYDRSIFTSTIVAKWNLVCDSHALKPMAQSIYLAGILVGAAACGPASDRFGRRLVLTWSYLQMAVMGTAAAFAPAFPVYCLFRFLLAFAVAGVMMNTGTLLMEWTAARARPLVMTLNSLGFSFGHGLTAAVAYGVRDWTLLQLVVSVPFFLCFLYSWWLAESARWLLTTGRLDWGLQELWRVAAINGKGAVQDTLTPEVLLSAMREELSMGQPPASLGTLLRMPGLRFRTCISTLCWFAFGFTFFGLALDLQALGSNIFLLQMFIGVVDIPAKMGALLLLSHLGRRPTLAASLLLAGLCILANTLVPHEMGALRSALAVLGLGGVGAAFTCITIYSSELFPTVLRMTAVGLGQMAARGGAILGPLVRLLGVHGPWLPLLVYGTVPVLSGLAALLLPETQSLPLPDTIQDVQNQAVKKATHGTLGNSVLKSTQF
# [2] = Intrinsic clearance in human liver microsomes; format: ADME; conditions: read-out: CLH
# [3] = Octanol-water partition co-efficient, log D of the compound by shake flask method; format: physicochemical
smiles,measurement,setting,value
N#Cc1ccc(Oc2ccc(S(=O)(=O)Nc3ncns3)cc2C#N)cc1Cl,IC50,[1],1120 nM
N#Cc1ccc(Oc2ccc(S(=O)(=O)Nc3ccc(F)cn3)c(F)c2)cc1F,IC50,[1],37 nM
N#Cc1ccc(Oc2ccc(S(=O)(=O)Nc3ccc(F)cn3)cc2)cc1F,IC50,[1],88 nM
N#Cc1ccc(Oc2ccc(S(=O)(=O)Nc3ncccn3)cc2C#N)cc1Cl,IC50,[1],1820 nM
N#Cc1ccc(Oc2ccc(S(=O)(=O)Nc3ccc(F)cn3)cc2C#N)cc1F,microsomal CLint,[2],< 8 µL/min/mg
same,logD,[3],1.4
